Source: publication PMC9101373, “Design of DNA Intercalators Based on 4-Carboranyl-1,8-Naphthalimides: Investigation of Their DNA-Binding Ability and Anticancer Activity” (International Journal of Molecular Sciences, 2022)

Tested on: calf thymus DNA (ct-DNA)
Test: UV–vis absorption titration with ct-DNA, binding constant Kb
Details: 10 µM compound, ct-DNA 1.25–15 µM
Description: The interaction of 1,8-naphthalimides bearing carborane clusters with ct-DNA was also studied by UV–vis absorption titration to better understand the mode of interaction and binding strength. For compounds interacting with DNA by intercalation, bathochromic and hypochromic effects are observed in the absorption spectra. The spectral changes observed in the electronic absorption of 6–11, 16–19, 36–43, and 54–61 in the absence and presence of ct-DNA are illustrated in Figures S271–S296 (ESI). Progressive addition of ct-DNA at the concentration of 1.25–15 µM to a fixed amount of modified naphthalic anhydride or naphthalimide (10 µM concentration) decreased absorbance for almost all the tested modified conjugates, except conjugates 14, 15, and 22–27 for which changes in absorbance were not observed. […] Hypochromicity (10–56%) was also observed for all conjugates, with the highest value for compound 40.
To compare the DNA-binding strength of the tested conjugates, we calculated the binding constant Kb, as described in the Materials and Methods section. […] For conjugates 14, 15, and 22–27, the Kb value could not be determined due to the lack of noticeable changes in the UV spectra.
The measurements were performed by adding aliquots of DMSO stock solution of the tested compounds to the buffer solution (pH 7.4, 20 mM, 50 mM NaCl, Tris-HCl buffer, DMSO content of the final solutions = 0.40–0.61%) to the final concentration of 10 µM. The tested compounds were incubated 5 min, with increasing concentrations ranging from 0 to 15 µM of ct-DNA at 37 °C, then the UV–vis absorption spectra, between 310 and 500 nm (310–550 nm for compounds 36–43 and 54–61), were recorded using a GBC Cintra10 UV–vis spectrometer (Dandenong, Australia) equipped with a GBC Thermocell Peltier Power Supply (Dandenong, Australia) using a 1 cm path length cell. The binding constant was calculated according to the following equation [53]: A0/A−A0=εG/εH−G−εG +εG/εH−G−εG ×1/Kb[DNA] where Kb is the binding constant, A0 and A are the absorbance of the free tested compound, and the apparent one, εG and εH−G are their coefficient, respectively, and [DNA] is the concentration of [DNA] in the base pair. The slope to intercept ratio of the plot between A0/A − A0 versus 1/[DNA] yielded the binding constant.

N-[2-(Dimethylamino)ethyl]-4-[(6-(2-(1,7-dicarba-closo-dodecaborane-1-yl)-ethylamino)hexyl)amino]-1,8-naphthalimide [Compound 59]
bathochromic shift: 1–2 nm

N-[2-(Dimethylamino)ethyl]-4-[(2-(2-(1,7-dicarba-closo-dodecaborane-1-yl)-ethylamino)ethyl)amino]-1,8-naphthalimide [Compound 55]
bathochromic shift: 1–2 nm
